Measured values: patent US20100104546A1, “MODULATORS OF ANTIGEN-DEPENDENT T CELL PROLIFERATION” (CHILDREN, YOUTH AND WOMEN'S HEALTH SERVICE, priority 2007, published 2010)

System: splenocytes
Experiment: Ex-vivo antigen (SRBC)-dependent splenocyte proliferation after administration to SRBC-immunized mice (thymidine incorporation)
Format: in vivo, Balb/c mice
Conditions: ip in mouse serum, between 10-80 mg/kg
Protocol: Mice were immunized with SRBC for 5 days. β-oxa-21:3n-3 was delivered in DMSO and injected intraperitoneally at the indicated doses. After 2 h spleens were removed and single cell suspensions were prepared. The splenocytes were cultured for 3 days in the presence (□), or absence (▪) of SRBC. Thymidine incorporation for final 16 hours of culture was determined. The data is expressed as mean±SEM of 3 separate experiments each in triplicate.
Mice were immunized with SRBC for 5 days. Then β-oxa-21:3n-3 dissolved in syngeneic mouse serum and injected intraperitoneally (A), intravenously (B) or gavaged/orally (C) at the indicated concentrations. After 2 h spleens were removed, single cell suspensions prepared and the splenocytes cultured for 3 days in the presence (▪), or absence (□) of SRBC. Thymidine incorporation for final 16 hours of culture was determined. The data is presented as the mean±SEM of 3 separate experiments separate experiments, each in quintuplets.
Mice were immunized with SRBC. After 5 days they were given β-thia-21:3n-3 at the indicated doses i.p. After 2 hours the spleens were removed and processed into single cell suppressions. These were then cultured in the presence (□), or absence of (▪) of SRBC to assess the proliferation. The results are expressed as mean±SEM of 3 experiments. (B) Effect of β-oxa-21:3n-3 on tetanus toxoid (TT)-induced ex vivo lymphocyte responses. Mice were immunized with TT subcutaneously and after 7 days were given β-oxa-21:3n-3 in mouse serum, intraperitoneally. Two hours later the spleen removed, single cell suspension prepared and examined for lymphoproliferation responses to TT in 5 day cultures. The results are expressed as mean±SEM of 3 experiments.
6-7 weeks old Balb/c mice were injected subcutaneously with 100 μl of 10% sheep red blood cells (IMVS, Inc., Adelaide, Australia) After 5 days 100 ul of β-oxa-21:3n-3 at indicated amounts were injected intraperitoneally, intravenously or gavaged orally. In another experimental set up mice were given β-tha-21:3n-3 i.p. In a third approach mice were infected subcutaneously with 100 μl of Tetanus Toxoid (2,500 Lf/ml). Then 7 days later were given β-oxa-21:3n-3. At indicated time points mice were sacrificed and spleens were removed. Single cell suspensions were prepared and white blood cells (WBC) were enriched by passing through Ficoll-Paque Plus (GE Healthcare). Cells were washed with RPMI-1640 containing 10% fetal bovine serum, 10 mM Hepes, antibiotics and glutamine (RPMI-10) and counted using an automated Cell-Dyne 3500R (Abbott, Inc. MA) instrument. Cells were viable (>98%) as judged by trypan blue exclusion. (β-oxa-21:3n-3)- or vehicle-treated mouse samples (200,000/well) were mixed either with SRBC (600,000/well) with 100 μl of Tetanus toxoid (50 Lf/ml) or phytohaemaglutinin (PHA) (2 μg/ml) or with PHA plus phorbol myristate acetate (PMA) (10 ng/ml) or with PMA plus calcium ionophore A23187 ([…]). Cells were cultured in 96 well U bottom plates (Nunc, Inc. Denmark) for 3 days (except for TT −5 days) at 37° C. under humidified air containing 5% CO2. At some instances 50 μl of supernatants were transferred to a new plate and frozen immediately at −70° C. to be used for cytokine measurements. Thymidine (50 μl, 1 μCi/well) was added at final 16 hours of culture. Cells were harvested and thymidine incorporation was determined using a beta scintillation counter.

**Q.** Which “lymphoproliferative response to SRBC” value does the source give for β-thia-21:3n-3 here?
**A.** Its value is “inhibition of the lymphoproliferative response in a dose dependent manner”.
